In the supplement of paper PMC10307832:

Tests used:
Experiment in all cases: relative viability (nuclei count vs DMSO), 5 days (fraction); higher = more cells survive
[1] = test system: 201T
How it was run: (§1)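 Lung cancer cell lines in 1536-well plates were dosed by pin tool the day after seeding, either with one drug alone or with a fixed anchor-drug dose plus five library-drug doses (not always all listed) in √10 steps. After 5 days, cells were fixed and their nuclei stained in one step (final 0.05% Triton X-100, 1% formaldehyde, 1 ug/ml Hoechst), then counted on 4× images. Relative viability is the nuclei count in treated wells divided by that in vehicle wells. Values are medians of duplicate plates.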

[2] = test system: NCI-H1792
How it was run: as §1

[3] = test system: NCI-H1915
How it was run: as §1

[4] = test system: NCI-H1650
How it was run: as §1

[5] = test system: NCI-H441
How it was run: as §1

[6] = test system: LC-2-ad
How it was run: as §1

[7] = test system: PC-3 [JPC-3]
How it was run: as §1

[8] = test system: NCI-H460
How it was run: as §1

[9] = test system: H3255
How it was run: as §1

[10] = test system: BEN
How it was run: as §1

[11] = test system: HCC-15
How it was run: as §1

[12] = test system: NCI-H727
How it was run: as §1

Which results are given for `COc1cc(N2CCC(C(N)=O)CC2)ccc1Nc1nc(N)c(Cl)c(Nc2ccccc2S(=O)(=O)C(C)C)n1` [HG-5-88-01] + CS(=O)(=O)N1CCN(Cc2cc3nc(-c4cccc5[nH]ncc45)nc(N4CCOCC4)c3s2)CC1 [Pictilisib] (partner 1 µM)?
relative viability ([1]; first compound 0.04 µM): 0.71; relative viability ([1]; first compound 0.1265 µM): 0.64; relative viability ([1]; first compound 0.4 µM): 0.649; relative viability ([1]; first compound 1.265 µM): 0.729; relative viability ([1]; first compound 4 µM): 0.739; relative viability ([2]; first compound 0.04 µM): 0.372; relative viability ([2]; first compound 0.1265 µM): 0.272; relative viability ([2]; first compound 0.4 µM): 0.313; relative viability ([2]; first compound 1.265 µM): 0.253; relative viability ([2]; first compound 4 µM): 0.297; relative viability ([3]; first compound 0.04 µM): 0.92; relative viability ([3]; first compound 0.1265 µM): 0.973; relative viability ([3]; first compound 0.4 µM): 0.95; relative viability ([3]; first compound 1.265 µM): 1.13; relative viability ([3]; first compound 4 µM): 0.806; relative viability ([4]; first compound 0.04 µM): 0.583; relative viability ([4]; first compound 0.1265 µM): 0.551; relative viability ([4]; first compound 0.4 µM): 0.565; relative viability ([4]; first compound 1.265 µM): 0.519; relative viability ([4]; first compound 4 µM): 0.355; relative viability ([5]; first compound 0.04 µM): 0.435; relative viability ([5]; first compound 0.1265 µM): 0.409; relative viability ([5]; first compound 0.4 µM): 0.494; relative viability ([5]; first compound 1.265 µM): 0.352; relative viability ([5]; first compound 4 µM): 0.536; relative viability ([6]; first compound 0.04 µM): 0.429; relative viability ([6]; first compound 0.1265 µM): 0.491; relative viability ([6]; first compound 0.4 µM): 0.366; relative viability ([6]; first compound 1.265 µM): 0.448; relative viability ([6]; first compound 4 µM): 0.334; relative viability ([7]; first compound 0.04 µM): 0.69; relative viability ([7]; first compound 0.1265 µM): 0.702; relative viability ([7]; first compound 0.4 µM): 0.636; relative viability ([7]; first compound 1.265 µM): 0.494; relative viability ([7]; first compound 4 µM): 0.266; relative viability ([8]; first compound 0.04 µM): 0.379; relative viability ([8]; first compound 0.1265 µM): 0.296; relative viability ([8]; first compound 0.4 µM): 0.395; relative viability ([8]; first compound 1.265 µM): 0.332; relative viability ([8]; first compound 4 µM): 0.277; relative viability ([9]; first compound 0.04 µM): 0.479; relative viability ([9]; first compound 0.1265 µM): 0.484; relative viability ([9]; first compound 0.4 µM): 0.449; relative viability ([9]; first compound 4 µM): 0.317; relative viability ([10]; first compound 0.04 µM): 0.504; relative viability ([10]; first compound 0.1265 µM): 0.523; relative viability ([10]; first compound 0.4 µM): 0.544; relative viability ([10]; first compound 1.265 µM): 0.468; relative viability ([10]; first compound 4 µM): 0.447; relative viability ([11]; first compound 0.04 µM): 0.844; relative viability ([11]; first compound 0.1265 µM): 0.831; relative viability ([11]; first compound 0.4 µM): 0.741; relative viability ([11]; first compound 1.265 µM): 0.798; relative viability ([11]; first compound 4 µM): 0.515; relative viability ([12]; first compound 0.04 µM): 0.486; relative viability ([12]; first compound 0.1265 µM): 0.448; relative viability ([12]; first compound 0.4 µM): 0.24; relative viability ([12]; first compound 1.265 µM): 0.261; relative viability ([12]; first compound 4 µM): 0.249
